Experimental data reported in US11559497B2 (Guangzhou Dazhou Biomedicine Ltd., priority 2020, dated 2023).

Tests used:
[1] = Phase 1 clinical study: plasma pharmacokinetics after ketamine transdermal patch; conditions: for AUC: AUCall; for AUC(0-inf): AUCinf; for plasma concentration: 28 mg dose
Procedure: Enrollment was planned to achieve participation of up to 14 adult subjects with MDD in the 3 stages of the protocol. Subjects were to be screened within 4 weeks of enrollment. Eligible subjects who provided written consent were to be enrolled into Stage 1 of the study. In Stage 1 of the study, subjects were to receive the low-dose transdermal patch. The amount of residual drug was to be measured and PK analysis conducted for each subject to inform the subsequent dosing. In Stage 2, after a 2 to 4 week washout period, a placebo patch was to be administered. A “deception” protocol was used in order to ensure the subjects remained blinded to the treatment. Placebo administration was followed by a 1 week washout period, after which subjects were to receive the high-dose transdermal patch in Stage 3. The overall study duration from screening until the end of Stage 3 was approximately 60 days, including both inpatient and outpatient portions of the study. The general study design is illustrated in FIG. 3.
The patch was predicted to deliver systemically approximately 20 mg.
For Stage 1, blood samples were collected pre-patch application, and at 2, 6, 12, 24, 28, 32, 48, 96, and 168 hours post-patch application.
Blood samples were collected in tubes containing sodium heparin and stored on ice or room temperature until centrifuged under refrigeration or room temperature for at least 10 minutes at 3,000 revolutions per minute. After centrifugation, plasma was removed, divided into 2 aliquots of approximately 0.6 mL each, frozen, and stored at or below −20° C. Blood was processed to plasma and frozen within 1 hour of collection. Processed frozen plasma samples were transferred on dry ice to the analytical laboratory and were stored at or below −20° C. until bioanalysis was performed.
A non-compartmental analysis (NCA) was used to calculate PK parameters using Phoenix® WinNonlin® 6.4 or later (Certara, USA).

[2] = Reported human pharmacokinetics of ketamine by IV infusion, oral or intranasal route; conditions: 40-min IV infusion of 35 mg of ketamine
Excerpt: There has been very limited data on monitoring HNK pharmacokinetics in humans in a robust approach. […] Also HNK was shown preclinically to have lower potential of AEs.

NMDA receptor = conditions: in vitro; Shimoyama et al., 1999; cited from earlier work
[3] = Prediction of delivered dose and human PK from in vitro permeability and PK linearity; conditions: predicted

NC1(c2ccccc2Cl)CCCCC1=O (stereo not drawn) [Norketamine, norketamine]
Extrap ([1]; Stage 1, Mean): 12%
Extrap ([1]; Stage 1, Median): 11%
Extrap ([1]; Stage 3, Mean): 7%
Extrap ([1]; Stage 3, Median): 7%
AUC ([1]; human, plasma, other: transdermal patch, 20 mg, Stage 1 (60 cm^2 patch, 24 h, low-dose), Mean): 377 ng·h/mL
AUC ([1]; human, plasma, other: transdermal patch, 20 mg, Stage 1 (60 cm^2 patch, 24 h, low-dose), Median): 328 ng·h/mL
AUC(0-inf) ([1]; human, plasma, other: transdermal patch, 20 mg, Stage 1, Mean): 420 ng·h/mL
AUC(0-inf) ([1]; human, plasma, other: transdermal patch, 20 mg, Stage 1, Median): 367 ng·h/mL
Cmax ([1]; human, plasma, other: transdermal patch, 20 mg, Cmax, Stage 1, Mean): 11.1 ng/mL
Cmax ([1]; human, plasma, other: transdermal patch, 20 mg, Cmax, Stage 1, Median): 9.85 ng/mL
half-life ([1]; human, plasma, other: transdermal patch, 20 mg, T1/2, Stage 1, Mean): 19.4 h
half-life ([1]; human, plasma, other: transdermal patch, 20 mg, T1/2, Stage 1, Median): 21 h
Tmax ([1]; human, plasma, other: transdermal patch, 20 mg, Tmax, Stage 1, Mean): 28.4 h
Tmax ([1]; human, plasma, other: transdermal patch, 20 mg, Tmax, Stage 1, Median): 28 h
AUC ([1]; human, plasma, other: transdermal patch, 40 mg, Stage 3 (20 and 60 cm^2 patches, high-dose), Mean): 486 ng·h/mL
AUC ([1]; human, plasma, other: transdermal patch, 40 mg, Stage 3 (20 and 60 cm^2 patches, high-dose), Median): 387 ng·h/mL
AUC(0-inf) ([1]; human, plasma, other: transdermal patch, 40 mg, Stage 3, Mean): 624 ng·h/mL
AUC(0-inf) ([1]; human, plasma, other: transdermal patch, 40 mg, Stage 3, Median): 500 ng·h/mL
Cmax ([1]; human, plasma, other: transdermal patch, 40 mg, Cmax, Stage 3, Mean): 13.4 ng/mL
Cmax ([1]; human, plasma, other: transdermal patch, 40 mg, Cmax, Stage 3, Median): 10.3 ng/mL
half-life ([1]; human, plasma, other: transdermal patch, 40 mg, T1/2, Stage 3, Mean): 17.9 h
half-life ([1]; human, plasma, other: transdermal patch, 40 mg, T1/2, Stage 3, Median): 19.2 h
Tmax ([1]; human, plasma, other: transdermal patch, 40 mg, Tmax, Stage 3, Mean): 31.1 h
Tmax ([1]; human, plasma, other: transdermal patch, 40 mg, Tmax, Stage 3, Median): 28 h
ratio of AUC of NK/Ketamine ([1]; tested ketamine patch): 1.40
ratio of Cmax of NK/ketamine ([1]; tested ketamine patch): 1.08
ratio of AUC of NK/Ketamine ([2]; digitized literature data): 0.989
ratio of Cmax of NK/ketamine ([2]; digitized literature data): about 0.362

CN[C@]1(c2ccccc2Cl)CCCCC1=O [S-ketamine]
greater affinity than R-ketamine for NMDA receptor binding (NMDA receptor): ~4 fold

NC1(c2ccccc2Cl)CCCC(O)C1=O (stereo not drawn) [Hydroxynorketamine, hydroxynorketamine]
plasma concentration ([1]; 48 hours post application of tested ketamine patch): about 10 ng/ml
plasma concentration ([1]; 72 hours post application of tested ketamine patch): about 6 ng/ml
AUCall ([1]; Stage 1 (60 cm^2 patch, 24 h, low-dose), Mean): 438 ng·h/mL
AUCall ([1]; Stage 1 (60 cm^2 patch, 24 h, low-dose), Median): 364 ng·h/mL
AUCinf ([1]; Stage 1, Mean): 666 ng·h/mL
Cmax ([1]; Stage 1, Mean): 12.3 ng/mL
Extrap ([1]; Stage 1, Mean): 10%
T1/2 ([1]; Stage 1, Mean): 19.3 h
Tmax ([1]; Stage 1, Mean): 33.0 h
AUCinf ([1]; Stage 1, Median): 573 ng·h/mL
Cmax ([1]; Stage 1, Median): 12.6 ng/mL
Extrap ([1]; Stage 1, Median): 6%
T1/2 ([1]; Stage 1, Median): 17.9 h
Tmax ([1]; Stage 1, Median): 32.0 h
AUCall ([1]; Stage 3 (20 and 60 cm^2 patches, high-dose), Mean): 549 ng·h/mL
AUCall ([1]; Stage 3 (20 and 60 cm^2 patches, high-dose), Median): 488 ng·h/mL
AUCinf ([1]; Stage 3, Mean): 839 ng·h/mL
Cmax ([1]; Stage 3, Mean): 15.7 ng/mL
Extrap ([1]; Stage 3, Mean): 15%
T1/2 ([1]; Stage 3, Mean): 20.2 h
Tmax ([1]; Stage 3, Mean): 33.5 h
AUCinf ([1]; Stage 3, Median): 660 ng·h/mL
Cmax ([1]; Stage 3, Median): 12.8 ng/mL
Extrap ([1]; Stage 3, Median): 10%
T1/2 ([1]; Stage 3, Median): 19.5 h
Tmax ([1]; Stage 3, Median): 29.9 h
ratio of AUC of HNK/Ketamine ([1]; tested ketamine patch): 2.23
ratio of Cmax of HNK/ketamine ([1]; tested ketamine patch): 1.19
ratio of AUC of HNK/Ketamine ([2]; MDD patients, digitized from Zarate et al.): 0.522
ratio of Cmax of HNK/ketamine ([2]; digitized from Zarate et al.): about 0.113
Cmax resulting from about 100 mg dose by ketamine transdermal delivery device [3]: around 30 ng/mL
